Patent EP4098265A1 (priority 2020, dated 2021)
Converted amounts (≈) assume the structure as drawn. Where two headings read alike, the source gives them in different places.

Tests used:
HCoV-229E = assay: Anti-HCoV-229E activity in Huh7.5 cells (CPE method); format: cell-based; conditions: Human coronavirus 229E
HCoV-OC43 [1] = assay: Anti-HCoV-OC43 activity in HCT-8 cells (CPE method); format: cell-based
HCoV-OC43 [2] = assay: Anti-HCoV-OC43 activity in MRC-5 cells (CPE method); format: cell-based; conditions: for IC50: Betacoronavirus 1, OC43, MRC5, 0 h
HCT-8 cells = conditions: human
MRC-5 cells = conditions: human
[3] = system: coronaviruses (HCoV-229E and HCoV-OC43); assay: CPE experiment on coronaviruses, single components compared with carrimycin; format: cell-based; conditions: above CPE method
[4] = system: Middle East Respiratory Syndrome Coronavirus (MERS-CoV); format: cell-based; conditions: in vitro
[5] = system: severe acute respiratory syndrome coronavirus SARS-CoV; format: cell-based; conditions: in vitro
human coronavirus HKU1 = format: cell-based
[6] = system: human coronavirus NL63(HCoV-NL63); format: cell-based
PI3K/Akt/mTOR pathway = format: cell-based
2019-nCoV = assay: Anti-2019-nCoV activity in Vero E6 cells (CPE); conditions: in words
[7] = 0h: administration at the same time of infection, read-out: IC50, First batch
[8] = 0h: administration at the same time of infection, read-out: IC50, Second batch
[9] = 2h: administration 2 hours after infection, read-out: IC50, First batch
[10] = 2h: administration 2 hours after infection, read-out: IC50, Second batch

CC[C@H]1OC(=O)[C@H](C)[C@@H](O[C@H]2C[C@@](C)(OC)[C@@H](O)[C@H](C)O2)[C@H](C)[C@@H](O[C@@H]2O[C@H](C)C[C@H](N(C)C)[C@H]2O)[C@](C)(O)C[C@@H](C)CN(C)[C@H](C)[C@@H](O)[C@]1(C)O [Azithromycin]
IC50 (HCoV-229E; [7]): 14.3 µg/mL (≈ 19.1 µM)
IC50 (HCoV-229E; [8]): 19.2 µg/mL (≈ 25.7 µM)
IC50 (HCoV-229E; [9]): 14.3 µg/mL (≈ 19.1 µM)
IC50 (HCoV-229E; [10]): 4.77 µg/mL (≈ 6.37 µM)
IC50 (HCoV-OC43 [1]; Betacoronavirus 1, OC43, HCT-8 cells, 0h administration, read-out: IC50): > 100 µg/mL
inhibitory effect on the HCoV-OC43 (HCoV-OC43 [1]; HCT-8 cells, 0h administration, in words): no inhibitory effect
IC50 (HCoV-OC43 [2]): > 11.1 µg/mL
inhibitory effect on the HCoV-OC43 (HCoV-OC43 [2]; MRC-5 cells, 0h administration, in words): no inhibitory effect
TC50 (HCT-8 cells): >100 µg/mL
TC50 (MRC-5 cells): 48.07 µg/mL (≈ 64.2 µM)

CO[C@@H]1[C@@H](O[C@@H]2O[C@H](C)[C@@H](O[C@H]3C[C@@](C)(O)[C@@H](OC(=O)CC(C)C)[C@H](C)O3)[C@H](N(C)C)[C@H]2O)[C@@H](CC=O)C[C@@H](C)[C@@H](O[C@H]2CC[C@H](N(C)C)[C@@H](C)O2)/C=C/C=C/C[C@@H](C)OC(=O)C[C@H]1O [Isovalerylspiramycin I, isovalerylspiramycin I]
inhibition activity compared with carrimycin [3]: higher than the inhibition activity of carrimycin
inhibition activity compared with ribavirin or azithromycin [4]: higher than the inhibition activity of ribavirin or azithromycin
inhibition activity compared with ribavirin or azithromycin [5]: higher than the inhibition activity of ribavirin or azithromycin
inhibition activity compared with ribavirin or azithromycin (human coronavirus HKU1): higher than the inhibition activity of ribavirin or azithromycin
inhibition activity compared with ribavirin or azithromycin [6]: higher than the inhibition activity of ribavirin or azithromycin
anti-inflammatory and immunomodulatory effects on PI3K/Akt/mTOR pathway (PI3K/Akt/mTOR pathway): inhibit the PI3K/Akt/mTOR pathway
anti-2109-nCoV activity in vitro (2019-nCoV): anti-2109-nCoV activities in vitro

NC(=O)c1ncn([C@@H]2O[C@H](CO)[C@@H](O)[C@H]2O)n1 [RBV, Ribavirin]
IC50 (HCoV-229E; [7]): 6.42 µg/mL (≈ 26.3 µM)
IC50 (HCoV-229E; 0h: administration at the same time of infection, read-out: IC50, Mean value): 7.06 ± 0.91 µg/mL (≈ 28.9 µM)
IC50 (HCoV-229E; [8]): 7.7 µg/mL (≈ 31.5 µM)
IC50 (HCoV-229E; [9]): 7.7 µg/mL (≈ 31.5 µM)
IC50 (HCoV-229E; [10]): 4.77 µg/mL (≈ 19.5 µM)
IC50 (HCoV-OC43 [1]; Betacoronavirus 1, OC43, HCT-8, 0 h): 11.1 µg/mL (≈ 45.5 µM)
IC50 (HCoV-OC43 [2]): 63.8 µg/mL (≈ 261 µM)
TC50 (HCT-8 cells): >100 µg/mL
TC50 (MRC-5 cells): >100 µg/mL

CCC(=O)O[C@@H]1CC(=O)O[C@H](C)C/C=C/C=C/[C@H](O[C@H]2CC[C@H](N(C)C)[C@@H](C)O2)[C@H](C)C[C@H](CC=O)[C@H](O[C@@H]2O[C@H](C)[C@@H](O[C@H]3C[C@@](C)(O)[C@@H](OC(=O)CC(C)C)[C@H](C)O3)[C@H](N(C)C)[C@H]2O)[C@H]1OC [isovalerylspiramycin III]
inhibition activity compared with carrimycin [3]: close to the inhibition activities of carrimycin
inhibition activity compared with ribavirin or azithromycin [4]: higher than the inhibition activity of ribavirin or azithromycin
inhibition activity compared with ribavirin or azithromycin [5]: higher than the inhibition activity of ribavirin or azithromycin
inhibition activity compared with ribavirin or azithromycin (human coronavirus HKU1): higher than the inhibition activity of ribavirin or azithromycin
inhibition activity compared with ribavirin or azithromycin [6]: higher than the inhibition activity of ribavirin or azithromycin
anti-inflammatory and immunomodulatory effects on PI3K/Akt/mTOR pathway (PI3K/Akt/mTOR pathway): inhibit the PI3K/Akt/mTOR pathway
anti-2109-nCoV activity in vitro (2019-nCoV): anti-2109-nCoV activities in vitro

isovalerylspiramycin II
inhibition activity compared with carrimycin [3]: close to the inhibition activities of carrimycin
inhibition activity compared with ribavirin or azithromycin [4]: higher than the inhibition activity of ribavirin or azithromycin
inhibition activity compared with ribavirin or azithromycin [5]: higher than the inhibition activity of ribavirin or azithromycin
inhibition activity compared with ribavirin or azithromycin (human coronavirus HKU1): higher than the inhibition activity of ribavirin or azithromycin
inhibition activity compared with ribavirin or azithromycin [6]: higher than the inhibition activity of ribavirin or azithromycin
anti-inflammatory and immunomodulatory effects on PI3K/Akt/mTOR pathway (PI3K/Akt/mTOR pathway): inhibit the PI3K/Akt/mTOR pathway
anti-2109-nCoV activity in vitro (2019-nCoV): anti-2109-nCoV activities in vitro
